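These data come from cells grown in 96-well plates and exposed to compound for 48 hours at five concentrations. GI50 = concentration required for 50% inhibition of growth.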 The source made the active and inactive calls. Rule as the data show it: active = GI50 up to about 1.1 µM and inactive = higher.
Columns and labels:
Test in all cases: inhibition of tumour cell growth, NCI panel, 48 h
COLO 205 = test system: COLO 205
PC-3 = test system: PC-3
OVCAR-4 = test system: OVCAR-4
HCC 2998 = test system: HCC 2998
NCI-H460 = test system: NCI-H460
NCI-H23 = test system: NCI-H23
LOX IMVI = test system: LOX IMVI
T47D = test system: T47D
UACC-62 = test system: UACC-62
U-251 = test system: U-251
NCI-H226 = test system: NCI-H226
OVCAR-5 = test system: OVCAR-5
UACC-257 = test system: UACC-257
DU-145 = test system: DU-145
IGROV-1 = test system: IGROV-1
UO-31 = test system: UO-31
SNB-75 = test system: SNB-75
SW-620 = test system: SW-620
786-0 = test system: 786-0
KM12 = test system: KM12

Row | Structure (SMILES) | GI50 (COLO 205) | GI50 (PC-3) | GI50 (OVCAR-4) | GI50 (HCC 2998) | GI50 (NCI-H460) | GI50 (NCI-H23) | GI50 (LOX IMVI) | GI50 (T47D) | GI50 (UACC-62) | GI50 (U-251) | GI50 (NCI-H226) | GI50 (OVCAR-5) | GI50 (UACC-257) | GI50 (DU-145) | GI50 (IGROV-1) | GI50 (UO-31) | GI50 (SNB-75) | GI50 (SW-620) | GI50 (786-0) | GI50 (KM12)
1 | c1ccc(CNc2c3c(nc4ccccc24)CCC3)cc1 | 10.4 µM (inactive) | 13.2 µM (inactive) | 15 µM (inactive) | 13.5 µM (inactive) | 10.6 µM (inactive) | 16.3 µM (inactive) | 14 µM (inactive) | 12.7 µM (inactive) | 12.8 µM (inactive) | 14.9 µM (inactive) | 17.1 µM (inactive) | 15.5 µM (inactive) | 13.6 µM (inactive) | 21.5 µM (inactive) | 15.8 µM (inactive) | 11.4 µM (inactive) | 18 µM (inactive) | 11.9 µM (inactive) | 13.4 µM (inactive) | 15.6 µM (inactive)
2 | C[C@H](C1CC2(C)OC2(C)C(=O)O1)[C@H]1CC[C@H]2[C@@H]3[C@@H]4O[C@@H]4[C@@]4(O)CC=CC(=O)[C@]4(C)[C@H]3CC[C@]12C (stereo not given in full) | > 50 µM (inactive) | > 50 µM (inactive) | > 50 µM (inactive) | > 50 µM (inactive) | > 50 µM (inactive) | > 50 µM (inactive) | > 50 µM (inactive) | 24.9 µM (inactive) | > 50 µM (inactive) | > 50 µM (inactive) | > 50 µM (inactive) | > 50 µM (inactive) | > 50 µM (inactive) | 16.9 µM (inactive) | > 50 µM (inactive) | 12.3 µM (inactive) | 8.18 µM (inactive) | > 50 µM (inactive) | > 50 µM (inactive) | > 50 µM (inactive)
3 | O=C1CCCC1CN1CCCC1 (stereo not given) | 3.78 µM (inactive) | 18.9 µM (inactive) | 1.93 µM (inactive) | > 45.2 µM (inactive) | 42.4 µM (inactive) | 15.3 µM (inactive) | 8.75 µM (inactive) | 2.75 µM (inactive) | 17.7 µM (inactive) | 23 µM (inactive) | 46.2 µM (inactive) | 18.3 µM (inactive) | 15.2 µM (inactive) | 30.5 µM (inactive) | 10.6 µM (inactive) | 7.31 µM (inactive) | 17.1 µM (inactive) | 5.24 µM (inactive) | 5.22 µM (inactive) | 16.1 µM (inactive)
4 | CC(C)Nc1[nH]c(C(=O)c2ccccc2)c(N)c1C(=S)Nc1ccccc1 | 28.1 µM (inactive) | > 100 µM (inactive) | 71.9 µM (inactive) | 21.8 µM (inactive) | 57 µM (inactive) | > 100 µM (inactive) | 23.2 µM (inactive) | 69.8 µM (inactive) | 16.9 µM (inactive) | 43.2 µM (inactive) | 41.3 µM (inactive) | > 100 µM (inactive) | 22.9 µM (inactive) | > 100 µM (inactive) | > 100 µM (inactive) | 77.1 µM (inactive) | 69.3 µM (inactive) | 47 µM (inactive) | 36.5 µM (inactive) | 31.7 µM (inactive)
5 | O=C(c1ccccc1)c1cc[n+](C2=C([N-]S(=O)(=O)c3ccccc3)C(=O)c3ccccc3C2=O)cc1 | 13.7 µM (inactive) | 11.1 µM (inactive) | 13.1 µM (inactive) | 11.4 µM (inactive) | 13.5 µM (inactive) | 3.12 µM (inactive) | 2.42 µM (inactive) | 3.33 µM (inactive) | 1.88 µM (inactive) | 4.38 µM (inactive) | 15.8 µM (inactive) | 19.2 µM (inactive) | 11.6 µM (inactive) | 13.9 µM (inactive) | 9.35 µM (inactive) | 11.7 µM (inactive) | 11.6 µM (inactive) | 10 µM (inactive) | 7.13 µM (inactive) | 12.6 µM (inactive)
6 | CC(=O)NC1C(OCC(=O)NC(C)C(=O)NC(CCC(=O)NCCCCCNc2ccc([N+](=O)[O-])c3[nH]c4ccccc4c(=O)c23)C(N)=O)C(O)C(CO)OC1(C)OCc1ccccc1 (stereo not given) | > 50 µM (inactive) | > 50 µM (inactive) | > 50 µM (inactive) | > 50 µM (inactive) | 18.4 µM (inactive) | > 50 µM (inactive) | > 50 µM (inactive) | > 50 µM (inactive) | > 50 µM (inactive) | 39.3 µM (inactive) | > 50 µM (inactive) | > 50 µM (inactive) | > 50 µM (inactive) | > 50 µM (inactive) | > 50 µM (inactive) | > 50 µM (inactive) | 24.8 µM (inactive) | > 50 µM (inactive) | 13 µM (inactive) | > 50 µM (inactive)
7 | COc1ccc(CCNC(=S)NC=C2C(=O)c3ccccc3C2=O)cc1OC | > 100 µM (inactive) | > 100 µM (inactive) | > 100 µM (inactive) | > 100 µM (inactive) | 10 µM (inactive) | > 100 µM (inactive) | > 100 µM (inactive) | > 100 µM (inactive) | > 100 µM (inactive) | > 100 µM (inactive) | > 100 µM (inactive) | > 100 µM (inactive) | > 100 µM (inactive) | > 100 µM (inactive) | > 100 µM (inactive) | 27.7 µM (inactive) | 19.8 µM (inactive) | > 100 µM (inactive) | > 100 µM (inactive) | > 100 µM (inactive)
8 | CC(C)(CN1CCCCC1)C(=O)/C=C/c1ccc(/C=C/C(=O)C(C)(C)CN2CCCCC2)cc1 | 0.152 µM (active) | 0.273 µM (active) | 0.368 µM (active) | 0.35 µM (active) | 0.684 µM (active) | 0.711 µM (active) | 0.268 µM (active) | 0.525 µM (active) | 1.02 µM (active) | 0.273 µM (active) | 1.84 µM (inactive) | 0.726 µM (active) | 1.05 µM (active) | 1.94 µM (inactive) | 0.505 µM (active) | 1.14 µM (inactive) | 0.673 µM (active) | 0.112 µM (active) | 0.446 µM (active) | 0.434 µM (active)
9 | O=C1Nc2cc([N+](=O)[O-])ccc2N/C1=C/C(=O)c1ccc(Cl)cc1 | 24.4 µM (inactive) | 16.6 µM (inactive) | 20.4 µM (inactive) | 23.6 µM (inactive) | 8.34 µM (inactive) | 14.2 µM (inactive) | 11.3 µM (inactive) | 13.5 µM (inactive) | 14.9 µM (inactive) | 6.56 µM (inactive) | 19.5 µM (inactive) | 21.5 µM (inactive) | 27.5 µM (inactive) | 6.71 µM (inactive) | 12.3 µM (inactive) | 25.1 µM (inactive) | 20.1 µM (inactive) | 13.9 µM (inactive) | 3.13 µM (inactive) | 14.4 µM (inactive)
10 | COc1cc(/C=C/C(=O)O)ccc1OS(=O)(=O)O | > 100 µM (inactive) | > 100 µM (inactive) | > 100 µM (inactive) | > 100 µM (inactive) | > 100 µM (inactive) | > 100 µM (inactive) | > 100 µM (inactive) | > 100 µM (inactive) | > 100 µM (inactive) | > 100 µM (inactive) | > 100 µM (inactive) | > 100 µM (inactive) | > 100 µM (inactive) | > 100 µM (inactive) | > 100 µM (inactive) | > 100 µM (inactive) | > 100 µM (inactive) | > 100 µM (inactive) | > 100 µM (inactive) | > 100 µM (inactive)
